Measurements from article PMC2904477 (Biochemistry, 2010).

Legend:
[1] = target: T1, K402Q/R405Q/R409Q CB1 receptor (Homo sapiens, UniProt P21554, K402Q/R405Q/R409Q); details: [3H]CP55940 saturation binding, mean ± SEM
[2] = target: T2, wild-type CB1 receptor (Homo sapiens, UniProt P21554); details: [3H]CP55940 saturation binding, mean ± SEM
[3] = target: T2, wild-type CB1 receptor; details: CP55940 dose-response; wild-type receptor (reference)
[4] = target: T3, L404A/F408A/F412A CB1 receptor (Homo sapiens, UniProt P21554, F408A/F412A/L404A); details: [3H]CP55940 saturation binding, mean ± SEM
T3 sequence (P21554 whole entry L404A/F408A/F412A): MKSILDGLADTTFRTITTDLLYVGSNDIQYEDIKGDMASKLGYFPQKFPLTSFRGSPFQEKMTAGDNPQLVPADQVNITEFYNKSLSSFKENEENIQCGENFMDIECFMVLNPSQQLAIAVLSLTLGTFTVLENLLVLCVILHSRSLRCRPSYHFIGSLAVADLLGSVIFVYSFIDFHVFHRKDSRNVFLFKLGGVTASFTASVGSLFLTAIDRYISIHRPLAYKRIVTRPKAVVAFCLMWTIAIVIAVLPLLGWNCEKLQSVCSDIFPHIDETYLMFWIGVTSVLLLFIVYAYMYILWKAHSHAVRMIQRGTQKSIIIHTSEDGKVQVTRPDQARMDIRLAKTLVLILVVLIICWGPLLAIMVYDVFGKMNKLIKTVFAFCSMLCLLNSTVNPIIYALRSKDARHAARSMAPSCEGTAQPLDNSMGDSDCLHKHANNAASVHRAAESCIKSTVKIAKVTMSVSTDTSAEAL

[5] = target: F408A CB1 receptor (Homo sapiens, UniProt P21554, F408A); details: [3H]CP55940 saturation binding
F408A CB1 receptor, sequence (P21554 whole entry F408A): as the sequence (P21554 whole entry L404A/F408A/F412A) above, with A404L, A412F counted along it

[6] = target: T1, K402Q/R405Q/R409Q CB1 receptor; details: CP55940 dose-response, mean ± SEM
[7] = target: L404F/F408L CB1 receptor (Homo sapiens, UniProt P21554, F408L/L404F); details: [3H]CP55940 saturation binding
L404F/F408L CB1 receptor, sequence (P21554 whole entry L404F/F408L): as the sequence (P21554 whole entry L404A/F408A/F412A) above, with A404F, A408L, A412F counted along it

[8] = target: F412A CB1 receptor (Homo sapiens, UniProt P21554, F412A); details: [3H]CP55940 saturation binding
F412A CB1 receptor, sequence (P21554 whole entry F412A): as the sequence (P21554 whole entry L404A/F408A/F412A) above, with A404L, A408F counted along it

[9] = target: L404A CB1 receptor (Homo sapiens, UniProt P21554, L404A); details: [3H]CP55940 saturation binding
L404A CB1 receptor, sequence (P21554 whole entry L404A): as the sequence (P21554 whole entry L404A/F408A/F412A) above, with A408F, A412F counted along it

[10] = target: L404F/F412L CB1 receptor (Homo sapiens, UniProt P21554, F412L/L404F); details: [3H]CP55940 saturation binding
L404F/F412L CB1 receptor, sequence (P21554 whole entry L404F/F412L): as the sequence (P21554 whole entry L404A/F408A/F412A) above, with A404F, A408F, A412L counted along it

[11] = target: T3, L404A/F408A/F412A CB1 receptor; details: CP55940 dose-response, mean ± SEM

T2 sequence (P21554 whole entry): as the sequence (P21554 whole entry L404A/F408A/F412A) above, with A404L, A408F, A412F counted along it
T1 sequence (P21554 whole entry K402Q/R405Q/R409Q): as the sequence (P21554 whole entry L404A/F408A/F412A) above, with K402Q, A404L, R405Q, A408F, R409Q, A412F counted along it

Question: With `CCCCCCC(C)(C)c1ccc([C@@H]2C[C@H](O)CC[C@H]2CCCO)c(O)c1` [CP55940, (1R,3R,4R)-3-[2-hydroxy-4-(1,1-dimethylheptyl)phenyl]-4-(3-hydroxypropyl)cyclohexan-1-ol] as the compound, how does the Bmax [1] read?
Answer: The Bmax was 3118 ± 142 fmol/mg.

Question: And the Bmax [2]?
Answer: Its Bmax is 3499 ± 129 fmol/mg.

Question: What about the “GTPγS Emax” value [3] of the same compound?
Answer: The value was 100.0 % WT.

Question: What about the Bmax [4] of the same compound?
Answer: Its Bmax is 867 ± 80 fmol/mg.

Question: And the Bmax [5]?
Answer: Its Bmax is 4133 ± 105 fmol/mg.

Question: And the “GTPγS Emax” value [6]?
Answer: Its value is 80.6 ± 2.0 % WT.

Question: And the Bmax [7]?
Answer: Its Bmax is 4523 ± 239 fmol/mg.

Question: What about the Bmax [8] of the same compound?
Answer: Its Bmax is 4062 ± 80 fmol/mg.

Question: What about the Bmax [9] of the same compound?
Answer: The Bmax was 3158 ± 135 fmol/mg.

Question: What about the Bmax [10] of the same compound?
Answer: The Bmax was 4531 ± 177 fmol/mg.

Question: And the “GTPγS Emax” value [11]?
Answer: Its value is 14.4 ± 1.9 % WT.
